Test results as given in the supplement of paper PMC10307832.

Experiments:
Assay in all cases: relative viability (nuclei count vs DMSO), 5 days (fraction); higher = more cells survive
[1] = tested on: A-427
How it was run: (§1)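 Lung cancer cell lines in 1536-well plates were dosed by pin tool the day after seeding, either with one drug alone or with a fixed anchor-drug dose plus five library-drug doses (not always all listed) in √10 steps. After 5 days, cells were fixed and their nuclei stained in one step (final 0.05% Triton X-100, 1% formaldehyde, 1 ug/ml Hoechst), then counted on 4× images. Relative viability is the nuclei count in treated wells divided by that in vehicle wells. Values are medians of duplicate plates.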

[2] = tested on: HCC-15
How it was run: as §1

[3] = tested on: HCC-78
How it was run: as §1

[4] = tested on: HOP-62
How it was run: as §1

[5] = tested on: LC-2-ad
How it was run: as §1

[6] = tested on: LXF-289
How it was run: as §1

[7] = tested on: NCI-H1734
How it was run: as §1

[8] = tested on: NCI-H1755
How it was run: as §1

[9] = tested on: NCI-H1792
How it was run: as §1

[10] = tested on: NCI-H1915
How it was run: as §1

[11] = tested on: NCI-H1975
How it was run: as §1

[12] = tested on: NCI-H2126
How it was run: as §1

[13] = tested on: NCI-H2228
How it was run: as §1

[14] = tested on: NCI-H2342
How it was run: as §1

[15] = tested on: NCI-H2347
How it was run: as §1

[16] = tested on: NCI-H358
How it was run: as §1

[17] = tested on: NCI-H522
How it was run: as §1

[18] = tested on: NCI-H647
How it was run: as §1

[19] = tested on: PC-3 [JPC-3]
How it was run: as §1

[20] = tested on: RERF-LC-KJ
How it was run: as §1

[21] = tested on: SK-LU-1
How it was run: as §1

[22] = tested on: SW 1573
How it was run: as §1

`Cc1sc2c(c1C)C(c1ccc(Cl)cc1)=N[C@@H](CC(=O)OC(C)(C)C)c1nnc(C)n1-2` [JQ1] + CC(=O)Nc1cccc(-n2c(=O)n(C3CC3)c(=O)c3c(Nc4ccc(I)cc4F)n(C)c(=O)c(C)c32)c1 [Trametinib] (partner 0.02 µM) showed a relative viability ([1]; first compound 0.04 µM) of 0.759, a relative viability ([1]; first compound 0.1265 µM) of 0.843 and a relative viability ([1]; first compound 0.4 µM) of 0.674. It also gave a relative viability ([1]; first compound 1.265 µM) of 0.466, a relative viability ([1]; first compound 4 µM) of 0.52 and a relative viability ([2]; first compound 0.04 µM) of 0.376. The relative viability ([2]; first compound 0.4 µM) was 0.338, the relative viability ([2]; first compound 1.265 µM) was 0.31 and the relative viability ([2]; first compound 4 µM) was 0.28. The relative viability ([3]; first compound 0.04 µM) was 0.791, the relative viability ([3]; first compound 0.1265 µM) was 0.603 and the relative viability ([3]; first compound 0.4 µM) was 0.572. It also gave a relative viability ([3]; first compound 1.265 µM) of 0.462, a relative viability ([3]; first compound 4 µM) of 0.367 and a relative viability ([4]; first compound 0.04 µM) of 0.307. For the same molecule, the relative viability ([4]; first compound 0.1265 µM) was 0.262, the relative viability ([4]; first compound 0.4 µM) was 0.156 and the relative viability ([4]; first compound 1.265 µM) was 0.119. For the same molecule, the relative viability ([4]; first compound 4 µM) was 0.106, the relative viability ([5]; first compound 0.04 µM) was 0.866 and the relative viability ([5]; first compound 0.1265 µM) was 0.918. For the same molecule, the relative viability ([5]; first compound 0.4 µM) was 0.708, the relative viability ([5]; first compound 1.265 µM) was 0.479 and the relative viability ([5]; first compound 4 µM) was 0.303. The relative viability ([6]; first compound 0.04 µM) was 0.641, the relative viability ([6]; first compound 0.1265 µM) was 0.698 and the relative viability ([6]; first compound 0.4 µM) was 0.676. It also gave a relative viability ([6]; first compound 1.265 µM) of 0.607, a relative viability ([6]; first compound 4 µM) of 0.477 and a relative viability ([7]; first compound 0.04 µM) of 0.685. For the same molecule, the relative viability ([7]; first compound 0.1265 µM) was 0.688, the relative viability ([7]; first compound 0.4 µM) was 0.644 and the relative viability ([7]; first compound 1.265 µM) was 0.462. It also gave a relative viability ([7]; first compound 4 µM) of 0.491, a relative viability ([8]; first compound 0.04 µM) of 0.796 and a relative viability ([8]; first compound 0.1265 µM) of 0.809. For the same molecule, the relative viability ([8]; first compound 0.4 µM) was 0.8, the relative viability ([8]; first compound 1.265 µM) was 0.674 and the relative viability ([8]; first compound 4 µM) was 0.65. For the same molecule, the relative viability ([9]; first compound 0.04 µM) was 0.345, the relative viability ([9]; first compound 0.1265 µM) was 0.421 and the relative viability ([9]; first compound 0.4 µM) was 0.286. The relative viability ([9]; first compound 1.265 µM) was 0.191, the relative viability ([9]; first compound 4 µM) was 0.186 and the relative viability ([10]; first compound 0.04 µM) was 0.281. It also gave a relative viability ([10]; first compound 0.4 µM) of 0.317, a relative viability ([10]; first compound 1.265 µM) of 0.237 and a relative viability ([10]; first compound 4 µM) of 0.2. It also gave a relative viability ([11]; first compound 0.04 µM) of 0.342, a relative viability ([11]; first compound 0.1265 µM) of 0.27 and a relative viability ([11]; first compound 0.4 µM) of 0.244. For the same molecule, the relative viability ([11]; first compound 1.265 µM) was 0.217, the relative viability ([11]; first compound 4 µM) was 0.198 and the relative viability ([12]; first compound 0.04 µM) was 0.521. For the same molecule, the relative viability ([12]; first compound 0.1265 µM) was 0.549, the relative viability ([12]; first compound 0.4 µM) was 0.486 and the relative viability ([12]; first compound 1.265 µM) was 0.368. For the same molecule, the relative viability ([12]; first compound 4 µM) was 0.416, the relative viability ([13]; first compound 0.04 µM) was 0.483 and the relative viability ([13]; first compound 0.1265 µM) was 0.396. It also gave a relative viability ([13]; first compound 0.4 µM) of 0.424, a relative viability ([13]; first compound 1.265 µM) of 0.276 and a relative viability ([13]; first compound 4 µM) of 0.181. The relative viability ([14]; first compound 0.04 µM) was 0.782, the relative viability ([14]; first compound 0.1265 µM) was 0.8 and the relative viability ([14]; first compound 0.4 µM) was 0.905. It also gave a relative viability ([14]; first compound 1.265 µM) of 0.803, a relative viability ([14]; first compound 4 µM) of 0.672 and a relative viability ([15]; first compound 0.04 µM) of 0.275. The relative viability ([15]; first compound 0.1265 µM) was 0.294, the relative viability ([15]; first compound 0.4 µM) was 0.276 and the relative viability ([15]; first compound 1.265 µM) was 0.24. It also gave a relative viability ([15]; first compound 4 µM) of 0.258, a relative viability ([16]; first compound 0.04 µM) of 0.148 and a relative viability ([16]; first compound 0.1265 µM) of 0.143. It also gave a relative viability ([16]; first compound 0.4 µM) of 0.122, a relative viability ([16]; first compound 1.265 µM) of 0.133 and a relative viability ([16]; first compound 4 µM) of 0.127. It also gave a relative viability ([17]; first compound 0.04 µM) of 0.767, a relative viability ([17]; first compound 0.1265 µM) of 0.631 and a relative viability ([17]; first compound 0.4 µM) of 0.485. The relative viability ([17]; first compound 1.265 µM) was 0.482, the relative viability ([17]; first compound 4 µM) was 0.447 and the relative viability ([18]; first compound 0.04 µM) was 0.403. For the same molecule, the relative viability ([18]; first compound 0.1265 µM) was 0.326, the relative viability ([18]; first compound 0.4 µM) was 0.214 and the relative viability ([18]; first compound 1.265 µM) was 0.126. It also gave a relative viability ([18]; first compound 4 µM) of 0.0652, a relative viability ([19]; first compound 0.04 µM) of 0.683 and a relative viability ([19]; first compound 0.1265 µM) of 0.609. It also gave a relative viability ([19]; first compound 0.4 µM) of 0.49, a relative viability ([19]; first compound 1.265 µM) of 0.475 and a relative viability ([19]; first compound 4 µM) of 0.461. It also gave a relative viability ([20]; first compound 0.04 µM) of 0.907, a relative viability ([20]; first compound 0.1265 µM) of 0.803 and a relative viability ([20]; first compound 0.4 µM) of 0.817. It also gave a relative viability ([20]; first compound 1.265 µM) of 0.532, a relative viability ([20]; first compound 4 µM) of 0.449 and a relative viability ([21]; first compound 0.04 µM) of 0.509. For the same molecule, the relative viability ([21]; first compound 0.1265 µM) was 0.444, the relative viability ([21]; first compound 0.4 µM) was 0.434 and the relative viability ([21]; first compound 1.265 µM) was 0.359. For the same molecule, the relative viability ([21]; first compound 4 µM) was 0.195, the relative viability ([22]; first compound 0.04 µM) was 0.422 and the relative viability ([22]; first compound 0.1265 µM) was 0.357. The relative viability ([22]; first compound 0.4 µM) was 0.277, the relative viability ([22]; first compound 1.265 µM) was 0.189 and the relative viability ([22]; first compound 4 µM) was 0.187.
